From patent US20230218710A1, “METHOD OF TREATING CORONAVIRUS INFECTIONS” (priority 2020, published 2023)
Square brackets hold non-standard residues; d marks the D form. Peptide text beside a SMILES is read from it.

Key:
[1] = in vitro; details: human, pooled human plasma
Procedure: The metabolic stability of the peptides can be assessed in vitro by incubation in plasma and determination of the amount of peptide remaining over time. Peptides (50 μM) were incubated in pooled plasma from mice, monkeys, and humans at 37° C. Samples were removed at intervals up to 3 hours and immediately analyzed for the concentration of intact peptide by LC/MS/MS. The percent of peptide remaining in plasma at each time point was calculated relative to the initial peak area.

[2] = biological target: human APJ (Homo sapiens, UniProt P35414); assay: cell-based; details: CHO-K1, 1.5 h, read-out: Percent of Apelin-13 Control Activity
Procedure: The effect of the peptides on activation of Apelin Receptor (APJ) can be assessed using an assay to monitor β-Arrestin recruitment in cultured cells overexpressing APJ such as CHO-K1, derived from Chinese hamster ovary. β-Arrestin recruitment assays were performed by Eurofins-DiscoverX (Fremont, Calif.) using CHO-K1 AGTRL1 β-Arrestin cell line (co-expressing ProLink tagged human APJ and Enzyme Acceptor tagged β-Arrestin) and PathHunter detection kit. Peptides were initially prepared either as 10 mM stock in DMSO and used at a final concentration of 10 μM (0.1% DMSO). CHO-K1 AGTRL1 β-Arrestin cells were seed onto 384-well plates in standard medium. […] Following 90 min. incubation at 37° C., β-Arrestin recruitment in response to various treatments was quantified using a chemiluminescent complementation reporter assay to measure association of tagged human APJ (ProLink tag) and tagged β-Arrestin (Enzyme Acceptor tag).

[3] = biological target: T1, Apelin Receptor (APJ) (Homo sapiens, UniProt P35414); assay: cell-based; details: CHO-K1, 0.5 h, read-out: Percent of Pyr-Apelin-13 Control Activity
T1 construct: host or cells: CHO-K1 AGTRL1 Gi cells
T1 sequence (P35414 1-380): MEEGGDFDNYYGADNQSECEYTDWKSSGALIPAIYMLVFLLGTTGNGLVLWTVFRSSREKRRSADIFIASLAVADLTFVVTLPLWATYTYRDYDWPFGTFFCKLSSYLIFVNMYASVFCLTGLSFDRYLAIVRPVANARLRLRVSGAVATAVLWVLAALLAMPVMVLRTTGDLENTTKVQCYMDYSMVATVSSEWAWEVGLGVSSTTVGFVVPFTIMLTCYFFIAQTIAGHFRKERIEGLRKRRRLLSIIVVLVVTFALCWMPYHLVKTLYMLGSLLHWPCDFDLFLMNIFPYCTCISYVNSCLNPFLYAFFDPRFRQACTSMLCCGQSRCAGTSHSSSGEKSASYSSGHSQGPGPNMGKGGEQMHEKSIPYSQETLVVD
Procedure: Peptides were initially prepared as 30 mM stock in DMSO and diluted to 3 mM in H2O or directly as 3 mM stock in H2O; used at a final concentration of 10 μM (0-0.1% DMSO).

[4] = tested on: LPS-induced acute lung injury mouse model; assay: LPS-induced acute lung injury model in mouse (Example 6); type: in vivo, mice; details: histopathology, 24 h after LPS, 5 mg/kg i.p.
Procedure: The effect of the peptides of the current invention on acute lung injury can be assessed in an LPS-induced acute lung injury mouse model by monitoring outcomes such as lung weight, fluid accumulation, cytokine secretion in blood or bronchoalveolar lavage fluid (BALF), neutrophil infiltration into lung tissues, and assessment of acute lung injury score by histopathology. Acute lung injury was induced in male C57BL/6 mice (6 to 8 weeks old) by intratracheal administration of 40 μL lipopolysaccharide (LPS) (Sigma Aldrich, St. Louis, Mo.) in PBS at 5 mg/kg. Control animals received intratracheal PBS alone. […] Treatments were administered 1 h prior to LPS for animals designated for sacrifice at 4 h after LPS, or at both 1 h prior to and 6 h after LPS for animals designated for sacrifice at 24 h after LPS. At 4 or 24 hours post LPS administration, tissues were harvested. Lungs were weighed, flushed with Hanks Buffer to provide bronchoalveolar lavage fluid (BALF). Lungs were fixed in 10% neutral buffered formalin (NBF) for histopathology. Tissue slides were stained with hematoxylin and eosin (H&E) and evaluated and scored with light microscopy of 5 representative microscopic fields (100× magnification) scoring on a 0-5 scale using standard methods (Matute-Bello G et al 2011. An Official American Thoracic Society Workshop Report: Features and Measurements of Experimental Acute Lung Injury in Animals. Am J Respir Cell Mol Biol 44:725-38). The average score for five fields was calculated for each animal. Levels of pro-inflammatory cytokines in BALF were determined using a meso scale discovery (MSD) system. Data for test peptides were compared to the vehicle control group. Lung weights were normalized to body weight.

Chain of human APJ (P32121 whole entry partner, one chain of several): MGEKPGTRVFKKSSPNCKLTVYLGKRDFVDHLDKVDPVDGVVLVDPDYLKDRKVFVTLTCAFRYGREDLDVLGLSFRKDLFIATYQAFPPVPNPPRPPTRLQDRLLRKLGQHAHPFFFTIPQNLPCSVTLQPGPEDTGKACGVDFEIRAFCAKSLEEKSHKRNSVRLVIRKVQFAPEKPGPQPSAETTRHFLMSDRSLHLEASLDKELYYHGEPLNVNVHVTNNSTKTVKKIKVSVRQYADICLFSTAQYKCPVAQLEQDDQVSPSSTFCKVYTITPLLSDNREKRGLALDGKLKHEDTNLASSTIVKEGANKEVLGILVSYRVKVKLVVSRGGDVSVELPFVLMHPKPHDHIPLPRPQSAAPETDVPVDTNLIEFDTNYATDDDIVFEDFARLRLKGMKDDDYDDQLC

| Molecule | remaining at 0.5 h, 50 μM [1] [%] | further results |
| --- | --- | --- |
| CSCC[C@H](NC(=O)CNC(=O)[C@H](CCSC)NC(=O)[C@H](CCSC)NC(=O)[C@H](CCCNC(=N)N)NC(=O)[C@H](CCCNC(=N)N)NC(=O)[C@@H](N)CCSC)C(=O)N[C@H](C(=O)N[C@@H](Cc1ccccc1)C(=O)N[C@@H](CCC(N)=O)C(=O)N[C@@H](CS)C(=O)N[C@@H](CC(C)C)C(=O)N[C@@H](CS)C(=O)NCC(=O)N[C@@H](CC(C)C)C(=O)O)C(C)C [compound 7] | 52.4 | – |
| CC[C@H](C)[C@H](NC(=O)[C@H](CCCNC(=N)N)NC(=O)[C@@H](N)CCCNC(=N)N)C(=O)N[C@H](C(=O)N[C@H](C)C(=O)N[C@H](C(=O)N[C@H](C(=O)N[C@@H](Cc1ccccc1)C(=O)N[C@@H](CCC(N)=O)C(=O)N[C@@H](CS)C(=O)N[C@@H](CC(C)C)C(=O)N[C@@H](CS)C(=O)N[C@H](C)C(=O)N[C@@H](CC(C)C)C(=O)O)C(C)C)[C@@H](C)CC)[C@@H](C)CC [compound 9] (H-RRII[dA]IVFQCLC[dA]L-OH) | 92.5 | – |
| COCCOCCOCCOCCOCCOCCOCCOCCOCCOCCOCCOCCC(=O)N[C@@H](CCCCN)C(=O)N[C@@H](CCCNC(=N)N)C(=O)N[C@@H](CCCNC(=N)N)C(=O)N[C@@H](CCSC)C(=O)N[C@@H](CCSC)C(=O)NCC(=O)N[C@@H](CCSC)C(=O)N[C@H](C(=O)N[C@@H](Cc1ccccc1)C(=O)N[C@@H](CCC(N)=O)C(=O)N[C@@H](CO)C(=O)N[C@@H](CC(C)C)C(=O)N[C@@H](CS)C(=O)NCC(=O)N[C@H](C)C(=O)O)C(C)C [compound 36] | – | Emax at 10 µM [2]: 63%; Emax at 10 µM [3]: 101% |
| COCCOCCOCCOCCOCCOCCOCCOCCOCCOCCOCCOCCC(=O)N[C@@H](CCCCN)C(=O)N[C@@H](CCCNC(=N)N)C(=O)N[C@@H](CCCNC(=N)N)C(=O)N[C@@H](CC(C)C)C(=O)N[C@@H](CC(C)C)C(=O)NCC(=O)N[C@@H](CC(C)C)C(=O)N[C@H](C(=O)N[C@@H](Cc1ccccc1)C(=O)N[C@@H](CCC(N)=O)C(=O)N[C@@H](CO)C(=O)N[C@@H](CC(C)C)C(=O)N[C@@H](CS)C(=O)NCC(=O)N[C@H](C)C(=O)O)C(C)C [compound 37] | – | Emax at 10 µM [2]: 12%; Emax at 10 µM [3]: 53% |
| CSCC[C@H](NC(=O)CNC(=O)[C@H](CCSC)NC(=O)[C@@H](N)CCSC)C(=O)N[C@H](C(=O)N[C@@H](Cc1ccccc1)C(=O)O)C(C)C [compound 45] (H-MMGMVF-OH) | 90.8 | – |
| CSCC[C@H](NC(=O)CNC(=O)[C@H](CCSC)NC(=O)[C@@H](N)CCSC)C(=O)N[C@H](C(=O)N[C@@H](Cc1ccccc1)C(=O)N[C@@H](CCC(N)=O)C(=O)O)C(C)C [compound 46] (H-MMGMVFQ-OH) | 100 | – |
| CSCC[C@H](NC(=O)CNC(=O)[C@H](CCSC)NC(=O)[C@@H](N)CCSC)C(=O)N[C@H](C(=O)N[C@@H](Cc1ccccc1)C(=O)N[C@@H](CCC(N)=O)C(=O)N[C@@H](CO)C(=O)O)C(C)C [compound 47] (H-MMGMVFQS-OH) | 86.1 | – |
| CSCC[C@H](NC(=O)CNC(=O)[C@H](CCSC)NC(=O)[C@@H](N)CCSC)C(=O)N[C@H](C(=O)N[C@@H](Cc1ccccc1)C(=O)N[C@@H](CCC(N)=O)C(=O)N[C@@H](CO)C(=O)N[C@@H](CC(C)C)C(=O)O)C(C)C [compound 48] (H-MMGMVFQSL-OH) | 92 | – |
| CSCC[C@H](NC(=O)CNC(=O)[C@H](CCSC)NC(=O)[C@H](CCSC)NC(=O)[C@@H](N)CCCNC(=N)N)C(=O)N[C@H](C(=O)N[C@@H](Cc1ccccc1)C(=O)O)C(C)C [compound 50] (H-RMMGMVF-OH) | 87.7 | – |
| CSCC[C@H](NC(=O)CNC(=O)[C@H](CCSC)NC(=O)[C@H](CCSC)NC(=O)[C@@H](N)CCCNC(=N)N)C(=O)N[C@H](C(=O)N[C@@H](Cc1ccccc1)C(=O)N[C@@H](CCC(N)=O)C(=O)O)C(C)C [compound 51] (H-RMMGMVFQ-OH) | 100 | – |
| CSCC[C@H](NC(=O)CNC(=O)[C@H](CCSC)NC(=O)[C@H](CCSC)NC(=O)[C@@H](N)CCCNC(=N)N)C(=O)N[C@H](C(=O)N[C@@H](Cc1ccccc1)C(=O)N[C@@H](CCC(N)=O)C(=O)N[C@@H](CO)C(=O)O)C(C)C [compound 52] (H-RMMGMVFQS-OH) | 97.5 | – |
| CSCC[C@H](NC(=O)CNC(=O)[C@H](CCSC)NC(=O)[C@H](CCSC)NC(=O)[C@@H](N)CCCNC(=N)N)C(=O)N[C@H](C(=O)N[C@@H](Cc1ccccc1)C(=O)N[C@@H](CCC(N)=O)C(=O)N[C@@H](CO)C(=O)N[C@@H](CC(C)C)C(=O)O)C(C)C [compound 53] (H-RMMGMVFQSL-OH) | 85.8 | – |
| CSCC[C@H](NC(=O)CNC(=O)[C@H](CCSC)NC(=O)[C@H](CCSC)NC(=O)[C@H](CCCNC(=N)N)NC(=O)[C@@H](N)CCCNC(=N)N)C(=O)O [compound 55] (H-RRMMGM-OH) | 100 | – |
| CSCC[C@H](NC(=O)CNC(=O)[C@H](CCSC)NC(=O)[C@H](CCSC)NC(=O)[C@H](CCCNC(=N)N)NC(=O)[C@@H](N)CCCNC(=N)N)C(=O)N[C@H](C(=O)O)C(C)C [compound 56] (H-RRMMGMV-OH) | 92.1 | – |
| CSCC[C@H](NC(=O)CNC(=O)[C@H](CCSC)NC(=O)[C@H](CCSC)NC(=O)[C@H](CCCNC(=N)N)NC(=O)[C@@H](N)CCCNC(=N)N)C(=O)N[C@H](C(=O)N[C@@H](Cc1ccccc1)C(=O)O)C(C)C [compound 57] (H-RRMMGMVF-OH) | 91.9 | – |
| CSCC[C@H](NC(=O)CNC(=O)[C@H](CCSC)NC(=O)[C@H](CCSC)NC(=O)[C@H](CCCNC(=N)N)NC(=O)[C@@H](N)CCCNC(=N)N)C(=O)N[C@H](C(=O)N[C@@H](Cc1ccccc1)C(=O)N[C@@H](CCC(N)=O)C(=O)O)C(C)C [compound 58] (H-RRMMGMVFQ-OH) | 69.5 | – |
| CSCC[C@H](NC(=O)CNC(=O)[C@H](CCSC)NC(=O)[C@H](CCSC)NC(=O)[C@H](CCCNC(=N)N)NC(=O)[C@@H](N)CCCNC(=N)N)C(=O)N[C@H](C(=O)N[C@@H](Cc1ccccc1)C(=O)N[C@@H](CCC(N)=O)C(=O)N[C@@H](CO)C(=O)O)C(C)C [compound 59] (H-RRMMGMVFQS-OH) | 62.9 | – |
| CSCC[C@H](NC(=O)CNC(=O)[C@H](CCSC)NC(=O)[C@H](CCSC)NC(=O)[C@H](CCCNC(=N)N)NC(=O)[C@@H](N)CCCNC(=N)N)C(=O)N[C@H](C(=O)N[C@@H](Cc1ccccc1)C(=O)N[C@@H](CCC(N)=O)C(=O)N[C@@H](CO)C(=O)N[C@@H](CC(C)C)C(=O)O)C(C)C [compound 60] (H-RRMMGMVFQSL-OH) | 95 | – |
| CSCC[C@H](NC(=O)CNC(=O)[C@H](CCSC)NC(=O)[C@H](CCSC)NC(=O)[C@H](CCCNC(=N)N)NC(=O)[C@@H](N)CCCNC(=N)N)C(=O)N[C@H](C(=O)N[C@@H](Cc1ccccc1)C(=O)N[C@@H](CCC(N)=O)C(=O)N[C@@H](CO)C(=O)N[C@@H](CC(C)C)C(=O)N[C@@H](CS)C(=O)NCC(=O)N[C@H](C)C(N)=O)C(C)C [compound 62] | 30.3 | – |
| (PEG12)KRRMMGMVFQSLCG(dA) (KRRMMGMVFQSLCGA; N-terminal PEG12; C-terminal D-alanine; (1)..(1) PEG12; (15)..(15) D-Ala) [SEQ ID NO: 36] | – | Mean (SEM) Alveolar Neutrophil Infiltration Score ([4]; 0-5 scale): 1.98 (0.18); Mean (SEM) Interstitial Neutrophil Infiltration Score ([4]; 0-5 scale): 1.60 (0.14); Mean (SEM) Composite Lung Injury Score [4]: 3.65 (0.28) |
